From PubChem BioAssay (NCI) come the findings set out here.

Several values for one entry are separate records, joined by “and”; a condition that tells them apart may be missing. Equal entries are not always repeated.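 Following 48 hours of exposure in 96-well plates, responses at five concentrations were used to interpolate endpoints linearly. Here, GI50 denotes the concentration required for 50% inhibition of growth. TGI marks complete inhibition of growth.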

Test systems include UACC-62 melanoma; NCI-H23 lung; EKVX NSCLC; SN12C renal; LOX IMVI melanoma; SK-OV-3 ovarian; RXF 393 renal; SK-MEL-28 melanoma; NCI-H460 lung; HOP-62 NSCLC; TK-10 renal; MDA-MB-231 breast.
Common to all, as to assay: NCI-60 cell line screen, 48 h

Regarding `COc1ccccc1Nc1nc(N)nc(N)c1N=O`, the TGI in the assay on UACC-62 melanoma, in the assay on NCI-H23 lung, in the assay on EKVX NSCLC, with SN12C renal, with LOX IMVI melanoma and in the assay on SK-OV-3 ovarian was above 100 µM throughout. For the same molecule, the TGI with RXF 393 renal, with SK-MEL-28 melanoma, with NCI-H460 lung, in the assay with HOP-62 NSCLC, in the assay with TK-10 renal and with MDA-MB-231 breast was above 100 µM throughout.
As to `CC(=O)OCC1OC(OC(C)(C)CC/C=C(\C)[C@@H]2C/C=C(\C)CC/C=C(\C)CC2)C(O)C(O)C1OC(C)=O` (stereo partly drawn), the GI50 with UACC-62 melanoma was > 92.8 µM and 15.3 µM; in the assay with NCI-H23 lung, 46.2 µM and 12.7 µM; in the assay on EKVX NSCLC, 43.6 µM and 19 µM; in the assay on SK-OV-3 ovarian, > 100 µM and 18.5 µM; in the assay with SK-MEL-28 melanoma it was > 100 µM and 21.7 µM; with HOP-62 NSCLC it was > 82.7 µM and 16.8 µM. The GI50 with TK-10 renal is > 100 µM and 20.6 µM; in the assay on MDA-MB-231 breast, > 61.2 µM and 18.9 µM. Also, the TGI with UACC-62 melanoma is > 100 µM and 30.6 µM; in the assay with NCI-H23 lung, > 100 µM and 25.3 µM; in the assay with EKVX NSCLC, > 100 µM and 37.3 µM; with SN12C renal it was > 94.1 µM and 41.2 µM; in the assay on LOX IMVI melanoma it was 33.5 µM and 54.1 µM; in the assay with SK-OV-3 ovarian, > 100 µM and 34 µM. Besides, the TGI was above 100 µM with RXF 393 renal; > 100 µM and 40.6 µM in the assay with SK-MEL-28 melanoma; 35.3 µM and 61.8 µM in the assay with NCI-H460 lung; > 100 µM and 30.4 µM in the assay on HOP-62 NSCLC; > 100 µM and 38.3 µM with TK-10 renal; > 100 µM and 38.6 µM with MDA-MB-231 breast.
On to `CC(C)c1ccc2[nH]c(O)c(-c3[nH]c4ccccc4c3N=O)c2c1`, for which the TGI with UACC-62 melanoma is 20.6 µM; with NCI-H23 lung, 16.1 µM; with EKVX NSCLC, 16.6 µM; in the assay on SN12C renal, 16.8 µM; with LOX IMVI melanoma, 17.7 µM; in the assay with SK-OV-3 ovarian it was 19.6 µM. Further, the TGI in the assay on RXF 393 renal came out at 6.66 µM; in the assay with SK-MEL-28 melanoma, 26.7 µM; with NCI-H460 lung, 15.2 µM; with HOP-62 NSCLC, 25.2 µM; in the assay on TK-10 renal, 43.4 µM; in the assay with MDA-MB-231 breast, 29.8 µM.
For `COCOC1/C=C/CCCCC2=C(C)C=C(C1)O2` (stereo not drawn), the TGI with UACC-62 melanoma, with NCI-H23 lung, in the assay with EKVX NSCLC, with SN12C renal, with LOX IMVI melanoma and in the assay with SK-OV-3 ovarian was above 100 µM throughout. Moreover, the TGI in the assay on RXF 393 renal, with SK-MEL-28 melanoma, in the assay on NCI-H460 lung, with HOP-62 NSCLC, in the assay on TK-10 renal and in the assay on MDA-MB-231 breast was above 100 µM in each case.
Take `COc1cccc2c(N)c3cccc(C(=O)NCCN(C)C)c3nc12`: the TGI was determined as 0.78 µM in the assay with UACC-62 melanoma; 1.02 µM in the assay on NCI-H23 lung; 1.09 µM with EKVX NSCLC; 0.488 µM with SN12C renal; 0.472 µM in the assay with LOX IMVI melanoma; 1.97 µM with SK-OV-3 ovarian. For the same molecule, the TGI with RXF 393 renal came out at 0.88 µM; in the assay with SK-MEL-28 melanoma, 3.17 µM; in the assay on NCI-H460 lung, 1.72 µM; in the assay on HOP-62 NSCLC it was 0.833 µM; in the assay with TK-10 renal it was 6.14 µM; with MDA-MB-231 breast, 0.853 µM.
Consider `CCCCN1C(=O)CC2[C@@H]3CCc4cc(OC(C)=O)ccc4C3CC[C@]2(C)C1=O` (stereo partly drawn), for which the TGI with UACC-62 melanoma, with NCI-H23 lung, with EKVX NSCLC, with SN12C renal, with LOX IMVI melanoma and in the assay with SK-OV-3 ovarian was above 10 µM throughout. The TGI in the assay on RXF 393 renal, in the assay with SK-MEL-28 melanoma, in the assay on NCI-H460 lung, in the assay on HOP-62 NSCLC, in the assay on TK-10 renal and with MDA-MB-231 breast was above 10 µM in each case.
Consider `CCCCCCCCCCCCCCCCCCNc1ccn(C2OC(COP(=O)(O)OCC3OC(n4ccc(NC(=O)CCCCCCCCCCCCCCCCC)nc4=O)C(OC(C)=O)C3OC(C)=O)C(OC(C)=O)C2OC(C)=O)c(=O)n1` (stereo not drawn), for which the TGI in the assay with UACC-62 melanoma, with NCI-H23 lung, in the assay with EKVX NSCLC, with SN12C renal, with LOX IMVI melanoma and in the assay on SK-OV-3 ovarian was above 100 µM in each case. Further, the TGI in the assay with RXF 393 renal, in the assay on SK-MEL-28 melanoma, in the assay on NCI-H460 lung, with HOP-62 NSCLC, with TK-10 renal and in the assay with MDA-MB-231 breast was above 100 µM in each case.
In the case of `O=C1CCC[C@@H]2NC[C@@H](c3ccc4c(c3)OCO4)[C@H]12`, the TGI with UACC-62 melanoma, with NCI-H23 lung, with EKVX NSCLC, in the assay with SN12C renal, in the assay with LOX IMVI melanoma and with SK-OV-3 ovarian was above 25 µM each time. Also, the TGI with RXF 393 renal, with SK-MEL-28 melanoma, with NCI-H460 lung, with HOP-62 NSCLC, with TK-10 renal and with MDA-MB-231 breast was above 25 µM in each case.
Regarding `O=C(CCCCCCCCC(=O)NN1C(=O)/C(=C\c2ccc(O)c(O)c2)SC1c1ccc(Cl)cc1)NN1C(=O)/C(=C\c2ccc(O)c(O)c2)SC1c1ccc(Cl)cc1` (stereo not drawn), the TGI in the assay with UACC-62 melanoma is 60.2 µM; in the assay with NCI-H23 lung it was 41.8 µM; with EKVX NSCLC, above 100 µM; in the assay on SN12C renal it was above 100 µM; with LOX IMVI melanoma it was 57.6 µM; in the assay on SK-OV-3 ovarian it was above 90.9 µM. In addition, the TGI with RXF 393 renal was 46.2 µM; in the assay on SK-MEL-28 melanoma it was above 100 µM; in the assay on NCI-H460 lung it was above 100 µM; in the assay on HOP-62 NSCLC it was 31.5 µM; in the assay on TK-10 renal, above 100 µM; in the assay on MDA-MB-231 breast, above 100 µM.
Take `O=C(O)c1c2c(cc3c1CC1(Cc4ccccc4C1)C3)CCC2`: the TGI in the assay on UACC-62 melanoma was above 100 µM; in the assay on NCI-H23 lung it was above 100 µM; with EKVX NSCLC, above 100 µM; in the assay with SN12C renal it was above 100 µM; in the assay on LOX IMVI melanoma it was 74.4 µM; in the assay on SK-OV-3 ovarian, above 100 µM. Further, the TGI in the assay on RXF 393 renal, with SK-MEL-28 melanoma, in the assay on NCI-H460 lung, in the assay with HOP-62 NSCLC, in the assay on TK-10 renal and with MDA-MB-231 breast was above 100 µM each time.
